Measurements published in ChEMBL document CHEMBL5154935, “Design, Synthesis, and Biological Evaluation of Novel Evodiamine Derivatives as Potential Antihepatocellular Carcinoma Agents” (J Med Chem, 2022).
The source made the active and inactive calls. The rule behind the calls is not given here.

Columns and labels:
Huh-7 [1] = assay: Induction of cell cycle arrest in human Huh-7 cells assessed as accumulation at S phase at 80 nM treated for 24 hrs by PI staining based flow cytometry (reference value: 23.33 %); format: functional
Huh-7 [2] = assay: Antitumor activity against human Huh-7 cells xenografted in BALB/c mouse assessed as tumor growth inhibition at 10 mg/kg, ip qd for 11 days and measured every 2 days relative to control; format: functional; details: Huh-7, 264 h, time 11 day, read-out: TGI
Huh-7 [3] = assay: Induction of cell cycle arrest in human Huh-7 cells assessed as accumulation at G2 phase at 80 nM treated for 24 hrs by PI staining based flow cytometry (reference value: 15.90 %); format: functional
Huh-7 [4] = assay: Antitumor activity against human Huh-7 cells xenografted in BALB/c mouse assessed as reduction in neo-vascularisation at 10 mg/kg, ip qd for 11 days and measured after 12 days by hematoxylin and eosin staining based assay; format: functional, organism-based; details: time 12.0 day
SK-HEP1 [5] = assay: Induction of apoptosis in human SK-Hep1 cells assessed as early apoptotic cells at 80 nM incubated for 24 hrs by annexin V-FITC/PI staining flow cytometry (reference value: 0.30 %); format: functional
[6] = Toxicity in BALB/c mouse xenografted with human Huh-7 cells assessed as histopathological change in heart at 10 mg/kg, ip qd for 11 days and measured after 12 days by hematoxylin and eosin staining based assay; format: organism-based; details: in vivo, 288 h, time 12 day
SK-HEP1 [7] = assay: Antiproliferative activity against human SK-HEP1 cells treated for 72 hrs by MTT assay; format: functional, cell-based; details: SK-HEP1, 72 h
Huh-7 [8] = assay: Induction of apoptosis in human Huh-7 cells assessed as late apoptotic cells at 80 nM incubated for 24 hrs by annexin V-FITC/PI staining flow cytometry (reference value: 1.33 %); format: functional
SK-HEP1 [9] = assay: Induction of cell cycle arrest in human SK-Hep1 cells assessed as accumulation at G1 phase at 80 nM treated for 24 hrs by PI staining based flow cytometry (reference value: 58.47 %); format: functional
[10] = Toxicity in BALB/c mouse xenografted with human Huh-7 cells assessed as histopathological change in spleen at 10 mg/kg, ip qd for 11 days and measured after 12 days by hematoxylin and eosin staining based assay; format: organism-based; details: in vivo, 288 h, time 12 day
[11] = Induction of apoptosis in rat HSC-T6 cells assessed as early apoptotic cells at 80 nM pretreated with TGFbeta-1 for 1 day followed by compound addition and measured after 24 hrs by flow cytometry (reference value: 0.17 %); format: functional
[12] = Toxicity in BALB/c mouse xenografted with human Huh-7 cells assessed as histopathological change in lung at 10 mg/kg, ip qd for 11 days and measured after 12 days by hematoxylin and eosin staining based assay; format: organism-based; details: in vivo, 288 h, time 12 day
SK-HEP1 [13] = assay: Induction of apoptosis in human SK-Hep1 cells assessed as late apoptotic cells at 80 nM incubated for 24 hrs by annexin V-FITC/PI staining flow cytometry (reference value: 1.13 %); format: functional
SK-HEP1 [14] = assay: Induction of cell cycle arrest in human SK-Hep1 cells assessed as accumulation at G2 phase at 80 nM treated for 24 hrs by PI staining based flow cytometry (reference value: 16.55 %); format: functional
Huh-7 [15] = assay: Antiproliferative activity against human Huh-7 cells treated for 72 hrs by MTT assay; format: functional, cell-based; details: Huh-7, 72 h
Huh-7 [16] = assay: Induction of apoptosis in human Huh-7 cells assessed as necrotic cells at 80 nM incubated for 24 hrs by annexin V-FITC/PI staining flow cytometry (reference value: 1.08 %); format: functional
[17] = Toxicity in BALB/c mouse xenografted with human Huh-7 cells assessed as histopathological change in liver at 10 mg/kg, ip qd for 11 days and measured after 12 days by hematoxylin and eosin staining based assay; format: organism-based; details: in vivo, 288 h, time 12 day
[18] = Antiproliferative activity against human L02 cells treated for 72 hrs by MTT assay; format: toxicity, cell-based
HSC-T6 = assay: Antiproliferative activity against TGF-beta-1-stimulated rat HSC-T6 cells assessed as suppression of cell proliferation at 6.67 to 60 uM preincubated with TGFbeta-1 for 1 day followed by compound addition and measured after 48 hrs; format: functional, cell-based; details: dose 6.67-60 µM
SK-HEP1 [19] = assay: Induction of cell cycle arrest in human SK-Hep1 cells assessed as accumulation at S phase at 80 nM treated for 24 hrs by PI staining based flow cytometry (reference value: 24.98 %); format: functional
[20] = Induction of apoptosis in rat HSC-T6 cells assessed as necrotic cells at 80 nM pretreated with TGFbeta-1 for 1 day followed by compound addition and measured after 24 hrs by flow cytometry (reference value: 0.56 %); format: functional
[21] = Induction of apoptosis in rat HSC-T6 cells assessed as late apoptotic cells at 80 nM pretreated with TGFbeta-1 for 1 day followed by compound addition and measured after 24 hrs by flow cytometry (reference value: 1.76 %); format: functional
HCCLM9 = assay: Antiproliferative activity against human HCCLM9 cells treated for 72 hrs by MTT assay; format: functional, cell-based; details: HCCLM9, 72 h
Huh-7 [22] = assay: Induction of apoptosis in human Huh-7 cells assessed as early apoptotic cells at 80 nM incubated for 24 hrs by annexin V-FITC/PI staining flow cytometry (reference value: 0.33 %); format: functional
Huh-7 [23] = assay: Induction of apoptosis in human Huh-7 cells assessed as viable cells at 80 nM incubated for 24 hrs by annexin V-FITC/PI staining flow cytometry (reference value: 97.3 %); format: functional; details: read-out: Activity
HepG2 = assay: Antiproliferative activity against human HepG2 cells treated for 72 hrs by MTT assay; format: functional, cell-based; details: HepG2, 72 h
SK-HEP1 [24] = assay: Induction of apoptosis in human SK-Hep1 cells assessed as necrotic cells at 80 nM incubated for 24 hrs by annexin V-FITC/PI staining flow cytometry (reference value: 0.73 %); format: functional
Huh-7 [25] = assay: Induction of cell cycle arrest in human Huh-7 cells assessed as accumulation at G1 phase at 80 nM treated for 24 hrs by PI staining based flow cytometry (reference value: 60.77 %); format: functional
SMMC-7721 = assay: Antiproliferative activity against human SMMC-7721 cells treated for 72 hrs by MTT assay; format: functional, cell-based; details: SMMC-7721, 72 h
[26] = Toxicity in BALB/c mouse xenografted with human Huh-7 cells assessed as histopathological change in kidney at 10 mg/kg, ip qd for 11 days and measured after 12 days by hematoxylin and eosin staining based assay; format: organism-based; details: in vivo, 288 h, time 12 day
SK-HEP1 [27] = assay: Induction of apoptosis in human SK-Hep1 cells assessed as viable cells at 80 nM incubated for 24 hrs by annexin V-FITC/PI staining flow cytometry (reference value: 97.8 %); format: functional; details: read-out: Activity
[28] = Induction of apoptosis in rat HSC-T6 cells assessed as viable cells at 80 nM pretreated with TGFbeta-1 for 1 day followed by compound addition and measured after 24 hrs by flow cytometry (reference value: 97.5 %); format: functional; details: read-out: Activity
[29] = target: T1, DNA topoisomerase 1 (Homo sapiens) (UniProt P11387); assay: Inhibition of Top1 (unknown origin) assessed as inhibition of relaxation of supercoiled pBR322 plasmid DNA at 12.5 uM incubated for 25 mins by ethidium bromide staining based agarose gel electrophoresis analysis relative to control
T1 sequence (whole entry): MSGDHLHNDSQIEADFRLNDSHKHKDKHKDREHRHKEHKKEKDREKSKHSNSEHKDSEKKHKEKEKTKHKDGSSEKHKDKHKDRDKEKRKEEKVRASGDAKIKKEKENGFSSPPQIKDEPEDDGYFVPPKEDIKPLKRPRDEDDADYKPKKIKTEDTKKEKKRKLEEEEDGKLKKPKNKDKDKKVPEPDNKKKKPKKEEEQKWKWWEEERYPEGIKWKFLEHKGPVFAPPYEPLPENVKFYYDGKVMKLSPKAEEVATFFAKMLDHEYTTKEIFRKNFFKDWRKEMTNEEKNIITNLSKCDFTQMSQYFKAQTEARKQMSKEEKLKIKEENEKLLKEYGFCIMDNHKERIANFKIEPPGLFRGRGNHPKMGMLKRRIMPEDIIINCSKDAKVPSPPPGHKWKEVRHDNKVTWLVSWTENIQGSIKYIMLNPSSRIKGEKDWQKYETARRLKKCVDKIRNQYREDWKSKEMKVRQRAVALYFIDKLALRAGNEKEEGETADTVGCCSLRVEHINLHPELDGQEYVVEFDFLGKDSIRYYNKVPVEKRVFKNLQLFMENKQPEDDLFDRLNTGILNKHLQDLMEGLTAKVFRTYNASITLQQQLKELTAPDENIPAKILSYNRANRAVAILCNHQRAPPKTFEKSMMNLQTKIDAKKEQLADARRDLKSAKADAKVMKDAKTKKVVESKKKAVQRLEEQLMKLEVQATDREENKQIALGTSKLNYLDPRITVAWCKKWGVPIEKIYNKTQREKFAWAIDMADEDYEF

[30] = Toxicity in BALB/c mouse xenografted with human Huh-7 cells assessed as reduction in WBC levels at 10 mg/kg, ip qd for 11 days and measured on day 11; format: organism-based; details: in vivo, 264 h, time 11 day
[31] = target: T1, DNA topoisomerase 1 (Homo sapiens); assay: Inhibition of Top1 (unknown origin) assessed as inhibition of relaxation of supercoiled pBR322 plasmid DNA at 50 uM incubated for 25 mins by ethidium bromide staining based agarose gel electrophoresis analysis relative to control
[32] = target: DNA topoisomerase 2-alpha (Homo sapiens) (UniProt P11388); assay: Inhibition of human Top2-alpha expressed in baculovirus assessed as inhibition of relaxation of supercoiled pBR322 plasmid DNA at 100 uM incubated for 30 mins in presence of ATP by ethidium bromide staining based agarose gel electrophoresis analysis relative to control
DNA topoisomerase 2-alpha (Homo sapiens), sequence (P11388 whole entry): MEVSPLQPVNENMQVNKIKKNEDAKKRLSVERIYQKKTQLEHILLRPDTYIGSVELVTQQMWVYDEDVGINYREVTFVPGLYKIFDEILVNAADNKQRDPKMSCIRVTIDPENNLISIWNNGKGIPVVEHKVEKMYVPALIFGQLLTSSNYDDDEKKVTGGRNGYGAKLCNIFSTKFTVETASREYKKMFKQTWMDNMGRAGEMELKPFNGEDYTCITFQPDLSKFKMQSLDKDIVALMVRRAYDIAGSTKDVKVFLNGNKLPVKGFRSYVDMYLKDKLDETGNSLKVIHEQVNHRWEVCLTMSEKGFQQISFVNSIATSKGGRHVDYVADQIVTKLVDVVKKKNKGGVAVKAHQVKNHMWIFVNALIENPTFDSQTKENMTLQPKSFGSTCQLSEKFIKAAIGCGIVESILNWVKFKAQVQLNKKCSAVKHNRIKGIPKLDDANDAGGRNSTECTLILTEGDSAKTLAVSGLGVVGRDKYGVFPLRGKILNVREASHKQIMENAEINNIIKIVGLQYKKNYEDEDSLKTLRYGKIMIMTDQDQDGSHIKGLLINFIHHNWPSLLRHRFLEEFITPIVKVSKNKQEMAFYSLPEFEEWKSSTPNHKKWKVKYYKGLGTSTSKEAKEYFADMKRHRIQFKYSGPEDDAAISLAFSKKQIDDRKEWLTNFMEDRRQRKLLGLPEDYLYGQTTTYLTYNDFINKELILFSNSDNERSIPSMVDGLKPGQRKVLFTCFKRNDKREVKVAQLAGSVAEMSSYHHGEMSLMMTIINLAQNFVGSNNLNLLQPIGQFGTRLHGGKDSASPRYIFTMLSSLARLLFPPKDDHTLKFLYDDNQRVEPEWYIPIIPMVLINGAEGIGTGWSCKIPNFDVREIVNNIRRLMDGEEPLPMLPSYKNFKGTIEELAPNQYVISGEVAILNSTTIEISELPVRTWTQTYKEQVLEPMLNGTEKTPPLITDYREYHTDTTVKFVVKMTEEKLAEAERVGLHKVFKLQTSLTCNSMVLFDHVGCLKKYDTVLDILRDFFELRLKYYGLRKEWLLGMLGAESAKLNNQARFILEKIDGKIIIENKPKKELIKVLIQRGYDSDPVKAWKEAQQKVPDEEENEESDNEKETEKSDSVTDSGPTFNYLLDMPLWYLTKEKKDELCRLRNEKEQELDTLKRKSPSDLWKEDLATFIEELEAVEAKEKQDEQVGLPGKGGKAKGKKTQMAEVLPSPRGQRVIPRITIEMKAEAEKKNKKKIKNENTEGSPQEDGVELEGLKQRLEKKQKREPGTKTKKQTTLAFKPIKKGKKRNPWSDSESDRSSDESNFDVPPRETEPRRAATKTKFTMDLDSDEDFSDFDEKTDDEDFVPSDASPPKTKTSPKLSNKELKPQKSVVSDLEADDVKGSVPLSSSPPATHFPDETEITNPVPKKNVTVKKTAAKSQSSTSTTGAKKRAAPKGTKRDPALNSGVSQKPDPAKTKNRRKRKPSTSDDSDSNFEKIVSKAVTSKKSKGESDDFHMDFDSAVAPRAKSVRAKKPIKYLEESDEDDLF

Row | Compound | Activity (Huh-7 [1]) [%] | Activity (Huh-7 [3]) [%] | Activity (SK-HEP1 [5]) [%] | IC50 (SK-HEP1 [7]) [nM] | Activity (Huh-7 [8]) [%] | Activity (SK-HEP1 [9]) [%] | Activity [11] [%] | Activity (SK-HEP1 [13]) [%] | Activity (SK-HEP1 [14]) [%] | IC50 (Huh-7 [15]) [nM] | Activity (Huh-7 [16]) [%] | IC50 at 72 h [18] [nM] | Activity (SK-HEP1 [19]) [%] | Activity [20] [%] | Activity [21] [%] | IC50 (HCCLM9) [nM] | Activity (Huh-7 [22]) [%] | viability at 0.08 µM (Huh-7 [23]) [%] | IC50 (HepG2) [nM] | Activity (SK-HEP1 [24]) [%] | other results
1 | CNC(=O)c1cc(Oc2ccc(NC(=O)Nc3ccc(Cl)c(C(F)(F)F)c3)cc2)ccn1 [SORAFENIB] | 37.84 | 9.16 | 1.01 | 1980 | 3.94 | 60.47 | 0.16 | 3.5 | 5.43 | 2600 | 1.18 | 5980 | 34.1 | 0.85 | 7.47 | 3150 | 0.23 | 94.6 | 2100 | 1.32 | inhibition in vivo at 10 mg/kg (Huh-7 [2]): 46.3%; Activity (Huh-7 [4]): Active; Activity [6]: Non-Toxic; Activity [10]: Non-Toxic; Activity [12]: Non-Toxic; Activity [17]: Non-Toxic; Activity (HSC-T6): Active; Activity (Huh-7 [25]): 53%; IC50 (SMMC-7721): 2370 nM; Activity [26]: Non-Toxic; viability at 0.08 µM (SK-HEP1 [27]): 94.1%; viability at 0.08 µM [28]: 91.5%
2 | CN1c2ccccc2C(=O)N2CCc3c([nH]c4ccccc34)C21 (stereo not given) | 23.42 | 15.93 | 0.27 | 2920 | 5.83 | 60.43 | 0.27 | 2.79 | 3.57 | 2180 | 1.64 | 3950 | 36 | 0.9 | 4.44 | 9270 | 0.57 | 92 | 2670 | 1.01 | inhibition [29]: 3.67%; Activity [30]: Toxic; inhibition [31]: 63.4%; inhibition [32]: 48%; Activity (Huh-7 [25]): 60.65%; IC50 (SMMC-7721): 3040 nM; viability at 0.08 µM (SK-HEP1 [27]): 85%; viability at 0.08 µM [28]: 94.4%
